From the supplement of paper PMC10307832 come the findings set out here.

Holding throughout (assay): relative viability (nuclei count vs DMSO), 5 days (fraction); higher = more cells survive
Compound in the assay “Vorinostat + Crizotinib”: O=C(CCCCCCC(=O)Nc1ccccc1)NO [Vorinostat] + C[C@@H](Oc1cc(-c2cnn(C3CCNCC3)c2)cnc1N)c1c(Cl)ccc(F)c1Cl [Crizotinib] (partner 1 µM)
In short, it runs like this:
(§1)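 Relative viability equals treated-well nuclei counts divided by vehicle-well nuclei counts. Counts came from 4× images of lung cancer cell lines grown in 1536-well plates for 5 days after pin-tool dosing on the day after seeding. Dosing used one drug alone or a fixed anchor-drug dose plus five library-drug doses (not always all listed) in √10 steps, and values are medians of duplicate plates.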

Compound in the assay “Vorinostat + Olaparib”: O=C(CCCCCCC(=O)Nc1ccccc1)NO [Vorinostat] + O=C(c1cc(Cc2n[nH]c(=O)c3ccccc23)ccc1F)N1CCN(C(=O)C2CC2)CC1 [Olaparib] (partner 8 µM)
In short, it runs like this: as §1

Compound in the assay “Vorinostat + Luminespib”: O=C(CCCCCCC(=O)Nc1ccccc1)NO [Vorinostat] + CCNC(=O)c1noc(-c2cc(C(C)C)c(O)cc2O)c1-c1ccc(CN2CCOCC2)cc1 [Luminespib] (partner 0.01 µM)
In short, it runs like this:
as §1

Compound in the assay “Vorinostat + Linsitinib”: O=C(CCCCCCC(=O)Nc1ccccc1)NO [Vorinostat] + C[C@]1(O)C[C@@H](c2nc(-c3ccc4ccc(-c5ccccc5)nc4c3)c3c(N)nccn32)C1 [Linsitinib] (partner 1 µM)
In outline: as §1

Compound in the assay “Vorinostat + AZD7762”: O=C(CCCCCCC(=O)Nc1ccccc1)NO [Vorinostat] + NC(=O)Nc1cc(-c2cccc(F)c2)sc1C(=O)N[C@H]1CCCNC1 [AZD7762] (partner 0.2 µM)
In short, it runs like this:
as §1

HARA: the relative viability was found to be 1.15 with Vorinostat + Crizotinib (first compound 0.253 µM); 0.932 with Vorinostat + Crizotinib (first compound 0.8 µM); 0.136 with Vorinostat + Crizotinib (first compound 2.53 µM); 0.0954 with Vorinostat + Crizotinib (first compound 8 µM); 0.966 with Vorinostat + Olaparib (first compound 0.253 µM); 0.454 with Vorinostat + Olaparib (first compound 0.8 µM). Besides, the relative viability worked out at 0.0979 with Vorinostat + Olaparib (first compound 2.53 µM); 0.0743 in the assay with Vorinostat + Olaparib (first compound 8 µM); 0.693 with Vorinostat + Luminespib (first compound 0.253 µM); 0.689 with Vorinostat + Luminespib (first compound 0.8 µM); 0.118 with Vorinostat + Luminespib (first compound 2.53 µM); 0.053 with Vorinostat + Luminespib (first compound 8 µM). Also, the relative viability was 1.13 with Vorinostat + Linsitinib (first compound 0.253 µM); 0.948 in the assay with Vorinostat + Linsitinib (first compound 0.8 µM); 0.254 with Vorinostat + Linsitinib (first compound 2.53 µM); 0.101 in the assay with Vorinostat + Linsitinib (first compound 8 µM); 0.2 in the assay with Vorinostat + AZD7762 (first compound 0.253 µM); 0.245 in the assay with Vorinostat + AZD7762 (first compound 0.8 µM). The results for the relative viability with Vorinostat + AZD7762 (first compound 2.53 µM) and with Vorinostat + AZD7762 (first compound 8 µM) were 0.146 and 0.125, respectively.
In the case of LCLC-103H, the relative viability in the assay with Vorinostat + Crizotinib (first compound 0.253 µM) amounted to 1.12; in the assay with Vorinostat + Crizotinib (first compound 0.8 µM), 1.13; in the assay with Vorinostat + Crizotinib (first compound 2.53 µM) it was 0.737; with Vorinostat + Crizotinib (first compound 8 µM), 0.254; with Vorinostat + Olaparib (first compound 0.253 µM), 0.844; in the assay with Vorinostat + Olaparib (first compound 0.8 µM) it was 0.737. Besides, the relative viability in the assay with Vorinostat + Olaparib (first compound 2.53 µM) is 0.413; with Vorinostat + Olaparib (first compound 8 µM), 0.247; with Vorinostat + Luminespib (first compound 0.253 µM), 0.987; with Vorinostat + Luminespib (first compound 0.8 µM), 0.939; with Vorinostat + Luminespib (first compound 2.53 µM), 0.185; with Vorinostat + Luminespib (first compound 8 µM) it was 0.145. For the same cell line, the relative viability in the assay with Vorinostat + Linsitinib (first compound 0.253 µM) came to 1.18; with Vorinostat + Linsitinib (first compound 0.8 µM), 0.999; with Vorinostat + Linsitinib (first compound 2.53 µM) it was 0.597; with Vorinostat + Linsitinib (first compound 8 µM), 0.172; with Vorinostat + AZD7762 (first compound 0.253 µM) it was 0.696; with Vorinostat + AZD7762 (first compound 0.8 µM), 0.672. For the same cell line, the relative viability came out at 0.45 with Vorinostat + AZD7762 (first compound 2.53 µM) and 0.238 in the assay with Vorinostat + AZD7762 (first compound 8 µM).
With EMC-BAC-2, the relative viability with Vorinostat + Crizotinib (first compound 0.253 µM) was determined as 0.817; with Vorinostat + Crizotinib (first compound 0.8 µM), 0.558; in the assay with Vorinostat + Crizotinib (first compound 2.53 µM), 0.166; with Vorinostat + Crizotinib (first compound 8 µM), 0.107; with Vorinostat + Olaparib (first compound 0.253 µM), 0.448; with Vorinostat + Olaparib (first compound 0.8 µM), 0.382. Moreover, the relative viability came out at 0.216 with Vorinostat + Olaparib (first compound 2.53 µM); 0.139 with Vorinostat + Olaparib (first compound 8 µM); 1.13 in the assay with Vorinostat + Luminespib (first compound 0.253 µM); 1.13 with Vorinostat + Luminespib (first compound 0.8 µM); 0.484 with Vorinostat + Luminespib (first compound 2.53 µM); 0.182 with Vorinostat + Luminespib (first compound 8 µM). Moreover, the relative viability was determined as 0.977 in the assay with Vorinostat + Linsitinib (first compound 0.253 µM); 0.866 with Vorinostat + Linsitinib (first compound 0.8 µM); 0.47 in the assay with Vorinostat + Linsitinib (first compound 2.53 µM); 0.134 with Vorinostat + Linsitinib (first compound 8 µM); 1.02 in the assay with Vorinostat + AZD7762 (first compound 0.253 µM); 0.653 with Vorinostat + AZD7762 (first compound 0.8 µM). Further, the relative viability in the assay with Vorinostat + AZD7762 (first compound 2.53 µM) was determined as 0.447; with Vorinostat + AZD7762 (first compound 8 µM), 0.174.
Take NCI-H650: the relative viability with Vorinostat + Crizotinib (first compound 0.253 µM) was found to be 0.716; with Vorinostat + Crizotinib (first compound 0.8 µM) it was 0.503; with Vorinostat + Crizotinib (first compound 2.53 µM), 0.155; with Vorinostat + Crizotinib (first compound 8 µM) it was 0.165; with Vorinostat + Olaparib (first compound 0.253 µM) it was 0.375; in the assay with Vorinostat + Olaparib (first compound 0.8 µM) it was 0.275. The relative viability with Vorinostat + Olaparib (first compound 2.53 µM) was 0.121; with Vorinostat + Olaparib (first compound 8 µM) it was 0.129; with Vorinostat + Luminespib (first compound 0.253 µM), 0.773; with Vorinostat + Luminespib (first compound 0.8 µM), 0.808; with Vorinostat + Luminespib (first compound 2.53 µM) it was 0.201; with Vorinostat + Luminespib (first compound 8 µM) it was 0.155. Further, the relative viability with Vorinostat + Linsitinib (first compound 0.253 µM) is 1.13; with Vorinostat + Linsitinib (first compound 0.8 µM), 0.52; with Vorinostat + Linsitinib (first compound 2.53 µM), 0.205; with Vorinostat + Linsitinib (first compound 8 µM), 0.152; with Vorinostat + AZD7762 (first compound 0.253 µM) it was 0.606; in the assay with Vorinostat + AZD7762 (first compound 0.8 µM) it was 0.737. The relative viability in the assay with Vorinostat + AZD7762 (first compound 2.53 µM) is 0.235; in the assay with Vorinostat + AZD7762 (first compound 8 µM), 0.165.
For NCI-H460, the relative viability was determined as 1.05 in the assay with Vorinostat + Crizotinib (first compound 0.253 µM); 0.336 with Vorinostat + Crizotinib (first compound 0.8 µM); 0.0241 with Vorinostat + Crizotinib (first compound 2.53 µM); 0.0093 in the assay with Vorinostat + Crizotinib (first compound 8 µM); 0.396 with Vorinostat + Olaparib (first compound 0.253 µM); 0.175 with Vorinostat + Olaparib (first compound 0.8 µM). Moreover, the relative viability with Vorinostat + Olaparib (first compound 2.53 µM) was 0.064; with Vorinostat + Olaparib (first compound 8 µM) it was 0.0336; in the assay with Vorinostat + Luminespib (first compound 0.253 µM), 0.0445; with Vorinostat + Luminespib (first compound 0.8 µM), 0.0295; in the assay with Vorinostat + Luminespib (first compound 2.53 µM), 0.0322; with Vorinostat + Luminespib (first compound 8 µM), 0.0199. Moreover, the relative viability was found to be 0.902 with Vorinostat + Linsitinib (first compound 0.253 µM); 0.544 in the assay with Vorinostat + Linsitinib (first compound 0.8 µM); 0.0315 with Vorinostat + Linsitinib (first compound 2.53 µM); 0.0069 in the assay with Vorinostat + Linsitinib (first compound 8 µM); 0.348 with Vorinostat + AZD7762 (first compound 0.253 µM); 0.446 in the assay with Vorinostat + AZD7762 (first compound 0.8 µM). The relative viability with Vorinostat + AZD7762 (first compound 2.53 µM) amounted to 0.0499; with Vorinostat + AZD7762 (first compound 8 µM), 0.0349.
For NCI-H1651, the relative viability came out at 0.846 with Vorinostat + Crizotinib (first compound 0.253 µM); 0.786 with Vorinostat + Crizotinib (first compound 0.8 µM); 0.232 with Vorinostat + Crizotinib (first compound 2.53 µM); 0.097 in the assay with Vorinostat + Crizotinib (first compound 8 µM); 0.187 in the assay with Vorinostat + Olaparib (first compound 0.253 µM); 0.17 with Vorinostat + Olaparib (first compound 0.8 µM). In addition, the relative viability in the assay with Vorinostat + Olaparib (first compound 2.53 µM) worked out at 0.098; with Vorinostat + Olaparib (first compound 8 µM) it was 0.0473; with Vorinostat + Luminespib (first compound 0.253 µM), 0.831; in the assay with Vorinostat + Luminespib (first compound 0.8 µM), 0.799; with Vorinostat + Luminespib (first compound 2.53 µM), 0.429; with Vorinostat + Luminespib (first compound 8 µM) it was 0.116. Further, the relative viability with Vorinostat + Linsitinib (first compound 0.253 µM) was determined as 1.01; with Vorinostat + Linsitinib (first compound 0.8 µM), 0.762; with Vorinostat + Linsitinib (first compound 2.53 µM), 0.0741; with Vorinostat + Linsitinib (first compound 8 µM), 0.0616; in the assay with Vorinostat + AZD7762 (first compound 0.253 µM) it was 0.308; with Vorinostat + AZD7762 (first compound 0.8 µM), 0.45. Moreover, the values for the relative viability with Vorinostat + AZD7762 (first compound 2.53 µM) and with Vorinostat + AZD7762 (first compound 8 µM) were 0.22 and 0.0691, respectively.
